From patent publication US11814376B2, “Hepatitis b core protein modulators” (Assembly Biosciences, Inc., priority 2015, dated 2023)

Key:
AD38 cells = experiment: Viability of AD38 cells (Promega CellTiter-Glo); type: cell-based; conditions: 10 μM compound, 6 days, CellTiter-Glo luminescence normalized to DMSO control (100%)
Procedure: (§1) Example 2: Assay Measuring Activity of Compounds on Viral Production in and on Viability of AD38 Cells
(§2) AD38 cells were then re-suspended with 10 mL of Treatment Medium and counted. Wells of a collagen coated 96-well NUNC microtiter plate were seeded at 50,000/well in 180 μL of Treatment Medium, and 20 μL of in treatment media with either 10% DMSO (Control) or a 10× solution of compound in 10% DMSO was added. Plates were incubated for 6 days at 37° C.
At the end of compound treatment period cell viability was assessed using a Promega CellTiter-Glo protocol. All supernatant was removed the previously treated 96-well microtiter plate, and 50 μL Tetracycline-free treatment medium (DMEM/F12 (1:1), 1× Pen/step (cat #: 30-002-CL, Mediatech, Inc), with 2% FBS, Tet-system approved (cat #: 631106, Clontech), and 1% DMSO was added back to each well. Another 50 μL of CellTiter-Glo reagent solution (Promega, G7573) was then added at room temperature and the contents mixed for 2 minutes on an orbital shaker to induce cell lysis. This was followed by incubation at room temperature for 10 minutes to stabilize the luminescent signal. The luminescence was recorded for 0.2 seconds per well on a Tecan multimode plate reader (Infinite M1000 pro). The luminescent signal from each well was normalized against that of untreated (DMSO) control wells. All results were reported percent viability (with controls being 100%).

[1] = tested on: HBV viral load in AD38 cells; experiment: Viral load production in AD38 cells, quantitative PCR of the core sequence in supernatant; type: cell-based; conditions: 10 μM compound, 6 days at 37° C., supernatant qPCR, relative to DMSO control; for activity at 10 µM: Hepatitis B virus, 144 h, read-out: AD38 Viral Load (%) (VL with cmpd/VL in DMSO control) at 10 μM
Procedure: as §1, §2
Viral load production was assayed by quantitative PCR of the core sequence. […] The PCR mixture was incubated at 45° C. for 5 minutes, then 95° C. for 10 min, followed by 40 cycles of 10 seconds at 95° C. and 20 seconds at 60° C. Viral load was quantitated against known standards by using ViiA™ 7 Software. Viral load in the supernatant from wells with treated cells were compared against viral load in supernatant from DMSO control wells (>3 per plate).

Row | Compound | AD38 Viability Normalized Result (cmpd/DMSO %) at 10 μM (AD38 cells) | activity at 10 µM [1] | AD38 Viral Load (%) (VL with cmpd/VL in DMSO control) at 10 μM [1]
1 | Cc1ncc(CNC(=O)c2ccc3c(c2)NC(=O)c2ccccc2S3(=O)=O)s1 [compound 1528] | 76% | 0.8% | 
2 | O=C(NCc1cnc(-c2ccc(OC[C@@H]3CCNC3)cc2)s1)c1ccc2c(c1)NC(=O)c1ccccc1S2(=O)=O [compound 11140, (R)-11-oxo-N-((2-(4-(pyrrolidin-3-ylmethoxy)phenyl)thiazol-5-yl)methyl)-10, 11-dihydrodibenzo [b, f] [1, 4] thiazepine-8-carboxamide 5,5-dioxide] | 99% | 5.5% | 
3 | O=C(NCc1nccs1)c1ccc2c(c1)NC(=O)c1ccccc1S2(=O)=O [compound 1650] | 82% | 58.8% | 
4 | O=C(NCc1cnc(-c2ccc(O)cc2)s1)c1ccc2c(c1)NC(=O)c1c(F)cccc1S2 [compound 1752] | 98% | 29.8% | 
5 | O=C(O)CSc1ncc(CNC(=O)c2ccc3c(c2)NC(=O)c2ccccc2O3)s1 [compound 1616, 2-((5-((11-oxo-10, 11-dihydrodibenzo [b, f] [1, 4]oxazepine-8-carboxamido)methyl)thiazol-2-yl)thio) acetic acid] | 103% | 105% | 
6 | CN(C)CCOc1ccc(-c2ncc(CNC(=O)c3ccc4c(c3)NC(=O)c3ccccc3S4(=O)=O)s2)cc1 [compound 1584] | 101% | 1.4% | 
7 | CC(C)c1ncc(CNC(=O)c2ccc3c(c2)NC(=O)c2ccccc2S3(=O)=O)s1 [compound 1552] | 102% | 0.4% | 
8 | O=C(NCc1cnc(-c2ccc([N+](=O)[O-])cc2)s1)c1ccc2c(c1)NC(=O)c1ccccc1S2(=O)=O [1645-A] | 98% | 0.3% | 
9 | COc1cc2c(cc1C(=O)NCc1cnc(-c3ccc(C#N)cc3)s1)NC(=O)c1ccccc1S2(=O)=O [1901-A, N-((2-(4-cyanophenyl)thiazol-5-yl)methyl)-7-methoxy-11-oxo-10, 11-dihydrodibenzo [b, f] [1, 4] thiazepine-8-carboxamide 5,5-dioxide] | 118% | 3% | 
10 | CN(C)CCCOc1ncc(CN(C)C(=O)c2ccc3c(c2)NC(=O)c2ccccc2O3)s1 [compound 1687, N-((2-(3-(dimethylamino)propoxy)thiazol-5-yl)methyl)-N-methyl-11-oxo-10, 11-dihydrodibenzo [b, f] [1, 4] oxazepine-8-carboxamide] | 102% | 49.2% | 
11 | CN(C)CCCOc1ccc(-c2ncc(CNC(=O)c3ccc4c(c3Cl)NC(=O)c3ccccc3S4(=O)=O)s2)cc1 [C51-01] | 99% | 0.4% | 
12 | COc1ncc(-c2ncc(CNC(=O)c3ccc4c(c3)NC(=O)c3ccccc3S4(=O)=O)s2)cn1 [1671-A, N-((2-(2-methoxypyrimidin-5-yl)thiazol-5-yl)methyl)-11-oxo-10, 11-dihydrodibenzo [b, f] [1, 4] thiazepine-8-carboxamide 5,5-dioxide] | 111% | 0.7% | 
13 | CN(C)c1ncc(CNC(=O)c2ccc3c(c2)NC(=O)c2ccccc2S3)s1 [compound 1425] | 100% | 0.6% | 
14 | CN(C)CCOc1ncc(CN(C)C(=O)c2ccc3c(c2)NC(=O)c2ccccc2S3(=O)=O)s1 [compound 1660, N-((2-(2-(dimethylamino)ethoxy)thiazol-5-yl)methyl)-N-methyl-11-oxo-10, 11-dihydrodibenzo [b, f] [1, 4] thiazepine-8-carboxamide 5,5-dioxide] | 102% | 86.8% | 
15 | CC(NC(=O)c1ccc2c(c1)NC(=O)c1ccccc1S2)c1cncs1 (racemic) [compound 1432, 11-oxo-N-(1-(thiazol-5-yl)ethyl)-10, 11-dihydrodibenzo [b, f] [1, 4] thiazepine-8-carboxamide] | 101% | 21.8% | 
16 | Cc1c(C(=O)NCc2cnc(-c3ccc(C#N)cc3F)s2)ccc2c1NC(=O)c1ccccc1S2(=O)=O [compound 1971] | 87% | 7% | 
17 | CN(C)CCCS(=O)(=O)c1ccc(-c2ncc(CNC(=O)c3ccc4c(c3)NC(=O)c3ccccc3S4(=O)=O)s2)cc1.O=C(O)C(F)(F)F [compound 11033, N-((2-(4-((3-(dimethylamino)propyl)sulfonyl)phenyl)thiazol-5-yl)methyl)-11-oxo-10, 11-dihydrodibenzo [b, f] [1, 4] thiazepine-8-carboxamide 5,5-dioxide TFA salt] | 95% | 17.1% | 
18 | CC(C)(C)OC(=O)N1CC(COc2ccc(-c3ncc(CNC(=O)c4ccc5c(c4)NC(=O)c4ccccc4S5(=O)=O)s3)cc2)C1 [1995-A, tert-butyl 3-((4-(5-((5,5-dioxido-11-oxo-10, 11-dihydrodibenzo [b, f] [1, 4]thiazepine-8-carboxamido)methyl)thiazol-2-yl)phenoxy)methyl) azetidine-1-carboxylate] | 107% |  | 2.4%
19 | O=C(NCc1cnc(-c2ccc(CCCCN3CCOCC3)cc2)s1)c1ccc2c(c1)NC(=O)c1ccccc1S2(=O)=O [compound 11056] | 96% | 0.8% | 
20 | NS(=O)(=O)c1ccc(-c2ncc(CNC(=O)c3ccc4c(c3)NC(=O)c3ccccc3O4)s2)cc1 [compound 1862] | 107% | 19.9% | 
21 | O=C(NCc1cnc(-c2cncs2)s1)c1ccc2c(c1)NC(=O)c1ccccc1S2(=O)=O [compound 1956] | 88% | 2.3% | 
22 | CN1CCC[C@@H]1COc1ccc(-c2ncc(CNC(=O)c3ccc4c(c3)NC(=O)c3ccccc3S4(=O)=O)s2)cc1 [compound 11131, (R)—N-((2-(4-((1-methylpyrrolidin-2-yl)methoxy)phenyl)thiazol-5-yl)methyl)-11-oxo-10,11-dihydrodibenzo [b, f] [1, 4] thiazepine-8-carboxamide 5,5-dioxide] | 88% | 2% | 
23 | O=C(O)CNc1ncc(CNC(=O)c2ccc3c(c2)NC(=O)c2ccccc2S3(=O)=O)s1 [compound 1583, (5-((5,5-dioxido-11-oxo-10, 11-dihydrodibenzo [b, f] [1, 4]thiazepine-8-carboxamido)methyl)thiazol-2-yl) glycine] | 0% | 1% | 
24 | O=C(NCc1cnc(Cc2ccc(O)cc2)s1)c1ccc2c(c1)NC(=O)c1ccccc1O2 [compound 1835, N-((2-(4-hydroxybenzyl)thiazol-5-yl)methyl)-11-oxo-10, 11-dihydrodibenzo [b, f] [1, 4] oxazepine-8-carboxamide] | 94% | 12.3% | 
25 | CN(C)CC1(COc2ccc(-c3ncc(CNC(=O)c4ccc5c(c4)NC(=O)c4ccccc4S5(=O)=O)s3)cc2)CCC1 [compound 11113] | 92% | 4.9% | 
26 | O=C(NCc1cnc(-c2ccc(OCCCN3CCC3)cc2)s1)c1ccc2c(c1)NC(=O)c1ccccc1S2(=O)=O [compound 11105] | 95% | 1.6% | 
27 | N#Cc1ccnc(-c2ncc(CNC(=O)c3ccc4c(c3)NC(=O)c3ccccc3S4(=O)=O)s2)c1 [compound 11051] | 103% | 1.2% | 
28 | CCCN1c2ccc(C(=O)NCc3cnc(C(F)(F)F)s3)cc2NC(=O)c2ccccc21 [compound 1916] | 103% | 15.5% | 
29 | CC(=O)NCCCSc1ccc(-c2ncc(CNC(=O)c3ccc4c(c3)NC(=O)c3ccccc3S4(=O)=O)s2)cc1 [compound 11067, N-((2-(4-((3-acetamidopropyl)thio)phenyl)thiazol-5-yl)methyl)-11-oxo-10, 11-dihydrodibenzo [b, f] [1, 4] thiazepine-8-carboxamide 5,5-dioxide] | 99% | 2.5% | 
30 | CS(=O)(=O)Nc1ccc(-c2ncc(CNC(=O)c3ccc4c(c3)NC(=O)c3ccccc3S4(=O)=O)s2)cc1 [compound 1857] | 107% | 1.5% | 
